Experiments:
Assay in all cases: radiometric filter-binding kinase assay, Kinase HotSpot
Settings in all cases: compound 0.5 µM; ATP 10 µM
FLT1 (human) = FLT1 (human) (UniProt P17948)
ITK (human) = ITK (human) (UniProt Q08881)
ADRBK2 (human) = ADRBK2 (human) (UniProt P35626)
PRKCD (human) = PRKCD (human) (UniProt Q05655)
EPHA1 (human) = EPHA1 (human) (UniProt P21709)
PAK6 (human) = PAK6 (human) (UniProt Q9NQU5)
DSTYK (human) = DSTYK (human) (UniProt Q6XUX3)
PRKCG (human) = PRKCG (human) (UniProt P05129)
LRRK2 (human) = LRRK2 (human) (UniProt Q5S007)
CDK5 CDK5R1 p25 (human) = CDK5 CDK5R1 p25 (human) (UniProt Q00535+Q15078)
ZAP70 (human) = ZAP70 (human) (UniProt P43403)
MARK4 (human) = MARK4 (human) (UniProt Q96L34)
CDC42BPA (human) = CDC42BPA (human) (UniProt Q5VT25)
STK10 (human) = STK10 (human) (UniProt O94804)
BMX (human) = BMX (human) (UniProt P51813)
NEK4 (human) = NEK4 (human) (UniProt P51957)
CDC42BPB (human) = CDC42BPB (human) (UniProt Q9Y5S2)
PRKCB1 (human) = PRKCB1 (human) (UniProt P05771)
MLTK (human) = MLTK (human) (UniProt Q9NYL2)
SGK2 (human) = SGK2 (human) (UniProt Q9HBY8)
MARK1 (human) = MARK1 (human) (UniProt Q9P0L2)
MYLK (human) = MYLK (human) (UniProt Q15746)
BTK (human) = BTK (human) (UniProt Q06187)
YES1 (human) = YES1 (human) (UniProt P07947)
ABL2 (human) = ABL2 (human) (UniProt P42684)
CDK9 CCNK (human) = CDK9 CCNK (human) (UniProt O75909+P50750)
CSK (human) = CSK (human) (UniProt P41240)
TAOK3 (human) = TAOK3 (human) (UniProt Q9H2K8)
IRAK4 (human) = IRAK4 (human) (UniProt Q9NWZ3)
MATK (human) = MATK (human) (UniProt P42679)
FGR (human) = FGR (human) (UniProt P09769)
CAMKK1 (human) = CAMKK1 (human) (UniProt Q8N5S9)
PRKCE (human) = PRKCE (human) (UniProt Q02156)
HIPK2 (human) = HIPK2 (human) (UniProt Q9H2X6)
GRK7 (human) = GRK7 (human) (UniProt Q8WTQ7)
SGK3 (human) = SGK3 (human) (UniProt Q96BR1)
PRKCI (human) = PRKCI (human) (UniProt P41743)
MAP3K2 (human) = MAP3K2 (human) (UniProt Q9Y2U5)
PAK4 (human) = PAK4 (human) (UniProt O96013)
PLK3 (human) = PLK3 (human) (UniProt Q9H4B4)
CAMK2A (human) = CAMK2A (human) (UniProt Q9UQM7)
ADRBK1 (human) = ADRBK1 (human) (UniProt P25098)

Sequence of MATK (human) (P42679 whole entry, looked up): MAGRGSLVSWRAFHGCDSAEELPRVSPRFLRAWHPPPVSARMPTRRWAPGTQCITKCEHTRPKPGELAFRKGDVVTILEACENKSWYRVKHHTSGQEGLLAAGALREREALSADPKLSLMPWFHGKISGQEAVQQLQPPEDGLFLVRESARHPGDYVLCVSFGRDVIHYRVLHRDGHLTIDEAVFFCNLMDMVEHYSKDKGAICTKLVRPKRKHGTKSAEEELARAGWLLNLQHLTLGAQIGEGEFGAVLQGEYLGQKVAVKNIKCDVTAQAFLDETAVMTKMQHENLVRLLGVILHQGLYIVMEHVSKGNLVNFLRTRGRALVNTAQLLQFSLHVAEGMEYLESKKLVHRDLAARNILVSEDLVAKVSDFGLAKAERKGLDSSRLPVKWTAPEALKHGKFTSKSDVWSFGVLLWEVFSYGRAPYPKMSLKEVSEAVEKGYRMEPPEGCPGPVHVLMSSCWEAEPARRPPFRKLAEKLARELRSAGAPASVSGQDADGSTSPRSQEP
Sequence of PRKCE (human) (Q02156 whole entry, looked up): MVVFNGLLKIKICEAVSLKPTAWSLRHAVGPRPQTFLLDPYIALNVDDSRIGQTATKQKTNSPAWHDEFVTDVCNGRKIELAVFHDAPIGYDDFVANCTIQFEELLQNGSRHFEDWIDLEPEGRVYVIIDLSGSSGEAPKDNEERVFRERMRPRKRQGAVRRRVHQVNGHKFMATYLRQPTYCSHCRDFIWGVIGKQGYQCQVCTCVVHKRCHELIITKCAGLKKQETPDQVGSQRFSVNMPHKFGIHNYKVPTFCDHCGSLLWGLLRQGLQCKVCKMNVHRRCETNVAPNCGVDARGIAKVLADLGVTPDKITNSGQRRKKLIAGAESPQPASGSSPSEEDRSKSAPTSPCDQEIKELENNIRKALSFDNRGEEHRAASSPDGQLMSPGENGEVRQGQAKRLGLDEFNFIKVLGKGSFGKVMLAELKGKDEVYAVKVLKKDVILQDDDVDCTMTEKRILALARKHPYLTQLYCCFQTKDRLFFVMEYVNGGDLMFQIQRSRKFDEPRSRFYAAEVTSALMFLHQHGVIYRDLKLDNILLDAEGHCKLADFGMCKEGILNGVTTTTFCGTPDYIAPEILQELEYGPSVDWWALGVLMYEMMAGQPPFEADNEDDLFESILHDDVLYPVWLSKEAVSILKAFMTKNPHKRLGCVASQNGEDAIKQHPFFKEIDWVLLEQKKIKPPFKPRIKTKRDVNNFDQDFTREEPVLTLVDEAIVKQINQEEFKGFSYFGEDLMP
Sequence of BTK (human) (Q06187 whole entry, looked up): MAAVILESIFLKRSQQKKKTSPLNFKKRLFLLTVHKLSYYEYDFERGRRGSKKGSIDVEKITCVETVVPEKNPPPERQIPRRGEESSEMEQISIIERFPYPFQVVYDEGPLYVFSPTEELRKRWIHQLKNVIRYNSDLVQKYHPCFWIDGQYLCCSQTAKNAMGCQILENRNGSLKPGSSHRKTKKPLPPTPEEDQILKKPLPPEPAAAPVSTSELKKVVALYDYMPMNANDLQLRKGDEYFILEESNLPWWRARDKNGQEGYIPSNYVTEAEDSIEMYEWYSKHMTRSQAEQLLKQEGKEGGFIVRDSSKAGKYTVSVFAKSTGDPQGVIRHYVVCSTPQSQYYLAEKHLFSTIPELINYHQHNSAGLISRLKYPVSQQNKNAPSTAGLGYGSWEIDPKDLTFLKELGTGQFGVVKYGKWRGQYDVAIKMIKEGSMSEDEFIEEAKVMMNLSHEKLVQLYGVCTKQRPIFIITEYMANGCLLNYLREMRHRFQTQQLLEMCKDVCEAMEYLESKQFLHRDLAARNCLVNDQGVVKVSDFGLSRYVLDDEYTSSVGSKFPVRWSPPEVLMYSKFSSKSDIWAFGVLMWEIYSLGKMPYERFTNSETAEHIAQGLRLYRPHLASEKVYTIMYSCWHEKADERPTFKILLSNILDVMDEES
Sequence of PLK3 (human) (Q9H4B4 whole entry, looked up): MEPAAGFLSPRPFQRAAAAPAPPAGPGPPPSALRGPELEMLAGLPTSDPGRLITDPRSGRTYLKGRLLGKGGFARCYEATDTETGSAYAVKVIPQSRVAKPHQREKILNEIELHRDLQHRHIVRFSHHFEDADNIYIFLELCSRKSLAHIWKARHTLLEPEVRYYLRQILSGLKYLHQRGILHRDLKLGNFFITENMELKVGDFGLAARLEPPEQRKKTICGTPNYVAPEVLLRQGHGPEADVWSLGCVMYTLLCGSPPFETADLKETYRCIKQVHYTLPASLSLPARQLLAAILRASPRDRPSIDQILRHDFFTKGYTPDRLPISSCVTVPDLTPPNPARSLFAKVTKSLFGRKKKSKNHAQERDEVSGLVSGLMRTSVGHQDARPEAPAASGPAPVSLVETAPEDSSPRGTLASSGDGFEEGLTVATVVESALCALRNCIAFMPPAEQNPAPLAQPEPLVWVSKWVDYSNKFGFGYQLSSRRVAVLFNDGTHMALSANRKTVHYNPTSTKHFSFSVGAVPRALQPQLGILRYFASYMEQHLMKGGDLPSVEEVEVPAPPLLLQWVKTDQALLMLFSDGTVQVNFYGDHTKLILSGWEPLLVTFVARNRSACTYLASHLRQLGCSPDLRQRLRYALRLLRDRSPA
Sequence of MYLK (human) (Q15746 whole entry, looked up): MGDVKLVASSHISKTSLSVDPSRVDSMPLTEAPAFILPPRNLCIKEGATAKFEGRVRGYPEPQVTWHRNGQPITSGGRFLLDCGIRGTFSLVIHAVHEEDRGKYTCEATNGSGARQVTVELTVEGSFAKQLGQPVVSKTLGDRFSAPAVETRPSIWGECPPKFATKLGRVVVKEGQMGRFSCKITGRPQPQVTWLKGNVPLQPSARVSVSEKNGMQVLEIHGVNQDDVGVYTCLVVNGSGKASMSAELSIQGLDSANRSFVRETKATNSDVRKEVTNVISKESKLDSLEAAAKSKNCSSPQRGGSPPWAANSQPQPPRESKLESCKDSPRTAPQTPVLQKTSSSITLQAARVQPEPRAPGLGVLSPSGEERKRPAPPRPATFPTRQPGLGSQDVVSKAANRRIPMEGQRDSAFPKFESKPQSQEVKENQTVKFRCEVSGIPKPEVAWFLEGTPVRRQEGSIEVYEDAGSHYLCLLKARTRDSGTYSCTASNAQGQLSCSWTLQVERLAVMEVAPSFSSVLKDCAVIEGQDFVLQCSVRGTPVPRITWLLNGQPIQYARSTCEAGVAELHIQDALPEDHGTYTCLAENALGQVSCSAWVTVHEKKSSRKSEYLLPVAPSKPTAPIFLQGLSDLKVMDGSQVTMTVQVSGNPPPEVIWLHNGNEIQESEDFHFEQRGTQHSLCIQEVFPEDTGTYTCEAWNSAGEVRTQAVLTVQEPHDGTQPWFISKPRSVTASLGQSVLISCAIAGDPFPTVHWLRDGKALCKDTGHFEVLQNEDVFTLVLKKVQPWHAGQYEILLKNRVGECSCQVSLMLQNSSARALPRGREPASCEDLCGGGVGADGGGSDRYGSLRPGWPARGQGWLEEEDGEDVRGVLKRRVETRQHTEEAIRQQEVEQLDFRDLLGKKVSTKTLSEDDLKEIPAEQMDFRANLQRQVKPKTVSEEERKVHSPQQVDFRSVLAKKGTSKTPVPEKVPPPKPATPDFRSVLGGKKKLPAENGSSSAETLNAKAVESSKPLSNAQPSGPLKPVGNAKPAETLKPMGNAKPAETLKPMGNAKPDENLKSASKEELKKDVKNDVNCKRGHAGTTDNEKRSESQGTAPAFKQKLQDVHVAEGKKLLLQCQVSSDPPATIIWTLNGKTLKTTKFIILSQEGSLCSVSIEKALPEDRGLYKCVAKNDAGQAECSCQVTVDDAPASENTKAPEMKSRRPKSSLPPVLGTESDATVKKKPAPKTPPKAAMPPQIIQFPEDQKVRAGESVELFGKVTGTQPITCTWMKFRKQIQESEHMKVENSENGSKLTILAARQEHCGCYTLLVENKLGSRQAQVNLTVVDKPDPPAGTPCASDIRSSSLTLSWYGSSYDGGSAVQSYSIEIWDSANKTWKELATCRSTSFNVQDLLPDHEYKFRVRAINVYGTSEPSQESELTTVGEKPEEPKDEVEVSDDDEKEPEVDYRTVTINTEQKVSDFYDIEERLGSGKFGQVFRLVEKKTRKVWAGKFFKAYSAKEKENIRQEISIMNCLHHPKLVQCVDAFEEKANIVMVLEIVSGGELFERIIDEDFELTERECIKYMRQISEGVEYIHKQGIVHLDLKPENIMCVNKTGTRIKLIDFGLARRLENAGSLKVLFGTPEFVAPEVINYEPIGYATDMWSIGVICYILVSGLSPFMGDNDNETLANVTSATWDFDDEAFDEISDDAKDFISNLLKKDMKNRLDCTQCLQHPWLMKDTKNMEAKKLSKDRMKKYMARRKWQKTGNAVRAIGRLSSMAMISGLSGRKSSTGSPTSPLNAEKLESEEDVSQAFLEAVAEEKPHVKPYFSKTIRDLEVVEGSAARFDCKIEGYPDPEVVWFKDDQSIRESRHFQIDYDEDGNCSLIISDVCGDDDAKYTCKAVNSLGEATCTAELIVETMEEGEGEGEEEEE
Sequence of PRKCI (human) (P41743 whole entry, looked up): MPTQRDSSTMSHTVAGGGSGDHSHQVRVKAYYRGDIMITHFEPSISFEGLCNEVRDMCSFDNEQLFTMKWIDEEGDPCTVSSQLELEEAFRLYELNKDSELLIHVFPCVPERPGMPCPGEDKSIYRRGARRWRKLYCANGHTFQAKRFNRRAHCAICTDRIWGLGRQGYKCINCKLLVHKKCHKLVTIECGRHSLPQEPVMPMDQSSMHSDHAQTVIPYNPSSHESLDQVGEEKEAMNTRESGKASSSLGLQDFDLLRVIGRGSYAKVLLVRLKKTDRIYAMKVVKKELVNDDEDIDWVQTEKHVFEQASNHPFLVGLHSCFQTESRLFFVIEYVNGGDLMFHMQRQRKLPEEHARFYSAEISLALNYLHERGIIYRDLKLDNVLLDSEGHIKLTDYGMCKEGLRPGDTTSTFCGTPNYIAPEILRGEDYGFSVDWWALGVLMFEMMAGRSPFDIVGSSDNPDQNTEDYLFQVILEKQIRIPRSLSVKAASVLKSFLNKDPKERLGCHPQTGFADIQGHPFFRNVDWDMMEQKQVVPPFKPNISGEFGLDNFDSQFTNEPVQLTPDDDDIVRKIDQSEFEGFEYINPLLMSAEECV

O=C(c1cc2cc(O)ccc2[nH]1)c1cc2cc(O)ccc2[nH]1 was tested, and the residual activity (FLT1 (human)) was 81.3%, the residual activity (ITK (human)) was 77.7% and the residual activity (ADRBK2 (human)) was 102%. The residual activity (PRKCD (human)) was 89.7%, the residual activity (EPHA1 (human)) was 81.1% and the residual activity (PAK6 (human)) was 74.4%. For the same molecule, the residual activity (DSTYK (human)) was 95.5%, the residual activity (PRKCG (human)) was 85.1% and the residual activity (LRRK2 (human)) was 87.2%. The residual activity (CDK5 CDK5R1 p25 (human)) was 52.6%, the residual activity (ZAP70 (human)) was 101% and the residual activity (MARK4 (human)) was 55.3%. The residual activity (CDC42BPA (human)) was 90.2%, the residual activity (STK10 (human)) was 70.3% and the residual activity (BMX (human)) was 80.6%. The residual activity (NEK4 (human)) was 87.6%, the residual activity (CDC42BPB (human)) was 96.2% and the residual activity (PRKCB1 (human)) was 90.4%. For the same molecule, the residual activity (MLTK (human)) was 34.3%, the residual activity (SGK2 (human)) was 94.3% and the residual activity (MARK1 (human)) was 66.3%. For the same molecule, the residual activity (MYLK (human)) was 91.4%, the residual activity (BTK (human)) was 86.8% and the residual activity (YES1 (human)) was 18.8%. The residual activity (ABL2 (human)) was 27.2%, the residual activity (CDK9 CCNK (human)) was 49.5% and the residual activity (CSK (human)) was 106%. For the same molecule, the residual activity (TAOK3 (human)) was 66.6%, the residual activity (IRAK4 (human)) was 85.9% and the residual activity (MATK (human)) was 93.3%. The residual activity (FGR (human)) was 12.7%, the residual activity (CAMKK1 (human)) was 63.3% and the residual activity (PRKCE (human)) was 119%. The residual activity (HIPK2 (human)) was 102%, the residual activity (GRK7 (human)) was 99.8% and the residual activity (SGK3 (human)) was 113%. For the same molecule, the residual activity (PRKCI (human)) was 98.4%, the residual activity (MAP3K2 (human)) was 102% and the residual activity (PAK4 (human)) was 111%. For the same molecule, the residual activity (PLK3 (human)) was 101%, the residual activity (CAMK2A (human)) was 74.5% and the residual activity (ADRBK1 (human)) was 98.2%.
For COc1ccc(C(=O)Nc2sc3c(c2C(N)=O)CCCC3)cc1OC, the residual activity (FLT1 (human)) was 99.1%, the residual activity (ITK (human)) was 99.6% and the residual activity (ADRBK2 (human)) was 103%. For the same molecule, the residual activity (PRKCD (human)) was 81.8%, the residual activity (EPHA1 (human)) was 88.1% and the residual activity (PAK6 (human)) was 85.7%. The residual activity (DSTYK (human)) was 92.2%, the residual activity (PRKCG (human)) was 93% and the residual activity (LRRK2 (human)) was 87.4%. It also gave a residual activity (CDK5 CDK5R1 p25 (human)) of 94.2%, a residual activity (ZAP70 (human)) of 95.6% and a residual activity (MARK4 (human)) of 86.5%. The residual activity (CDC42BPA (human)) was 81.8%, the residual activity (STK10 (human)) was 93.9% and the residual activity (BMX (human)) was 89.8%. It also gave a residual activity (NEK4 (human)) of 104%, a residual activity (CDC42BPB (human)) of 94.5% and a residual activity (PRKCB1 (human)) of 91.8%. For the same molecule, the residual activity (MLTK (human)) was 93.8%, the residual activity (SGK2 (human)) was 100% and the residual activity (MARK1 (human)) was 97.9%. For the same molecule, the residual activity (MYLK (human)) was 41.2%, the residual activity (BTK (human)) was 104% and the residual activity (YES1 (human)) was 88.3%. It also gave a residual activity (ABL2 (human)) of 101%, a residual activity (CDK9 CCNK (human)) of 85.7% and a residual activity (CSK (human)) of 98.8%. For the same molecule, the residual activity (TAOK3 (human)) was 100%, the residual activity (IRAK4 (human)) was 94.8% and the residual activity (MATK (human)) was 92.7%. The residual activity (FGR (human)) was 90%, the residual activity (CAMKK1 (human)) was 125% and the residual activity (PRKCE (human)) was 95%. The residual activity (HIPK2 (human)) was 107%, the residual activity (GRK7 (human)) was 95.5% and the residual activity (SGK3 (human)) was 103%. The residual activity (PRKCI (human)) was 91.8%, the residual activity (MAP3K2 (human)) was 105% and the residual activity (PAK4 (human)) was 95.9%. The residual activity (PLK3 (human)) was 95%, the residual activity (CAMK2A (human)) was 100% and the residual activity (ADRBK1 (human)) was 96.8%.

Source: the kinase profiling compilation of Christmann-Franck et al. (2016)
